For assay [1], the system named is N. n. kaouthia venom. Particulars: in vivo.
Assay [2] deals with Sea snake venom. Particulars: in vivo.
In assay [3] the test system is venoms and their lethal toxins. The arrangement: species or system mice. Particulars: mouse.
Assay [4] concerns O. s. scutellatus venom. As to conditions: in vivo.
Assay [5] relates to C. atrox venom. As to conditions: in vivo.
The subject of assay [6] is V. russellii venom. As to conditions: in vivo.

Ends that are not written are not given here.

LKAMDPTPPLWIKTE [LTNF-15]: the “Death/Survival Group II (LTNF Immediately)” value in assay [1], in assay [2], in assay [4], in assay [5] and in assay [6] was 0/3 throughout. Also, the “Death/Survival Group III (LTNF 1/2 hr before)” value in assay [1], in assay [2], in assay [4], in assay [5] and in assay [6] was 0/3 in each case. Also, in assay [3], the “neutralization of venoms and their lethal toxins in vivo” value is reported as “neutralized in vivo”.

The values are drawn from patent US5744449A (priority 1996, dated 1998).
